Key:
Rattus norvegicus [1] = test: Antihyperglycemic activity in rat streptozotocin-induced diabetic model assessed as reduction of blood glucose level at 100 mg/kg, po after 24 hrs; type: functional
Rattus norvegicus [2] = test: Antihyperglycemic activity in rat streptozotocin-induced diabetic model assessed as reduction of blood glucose level at 100 mg/kg, po after 5 hrs; type: functional
Rattus norvegicus [3] = test: Antihyperglycemic activity in rat sucrose loaded model assessed as reduction of blood glucose level at 100 mg/kg, po; type: functional
[4] = target: T1, Tyrosine-protein phosphatase non-receptor type 1 (Homo sapiens) (UniProt P18031); test: Inhibition of PTP1B assessed as p-nitrophenolate ions release at 100 uM
T1 sequence (whole entry): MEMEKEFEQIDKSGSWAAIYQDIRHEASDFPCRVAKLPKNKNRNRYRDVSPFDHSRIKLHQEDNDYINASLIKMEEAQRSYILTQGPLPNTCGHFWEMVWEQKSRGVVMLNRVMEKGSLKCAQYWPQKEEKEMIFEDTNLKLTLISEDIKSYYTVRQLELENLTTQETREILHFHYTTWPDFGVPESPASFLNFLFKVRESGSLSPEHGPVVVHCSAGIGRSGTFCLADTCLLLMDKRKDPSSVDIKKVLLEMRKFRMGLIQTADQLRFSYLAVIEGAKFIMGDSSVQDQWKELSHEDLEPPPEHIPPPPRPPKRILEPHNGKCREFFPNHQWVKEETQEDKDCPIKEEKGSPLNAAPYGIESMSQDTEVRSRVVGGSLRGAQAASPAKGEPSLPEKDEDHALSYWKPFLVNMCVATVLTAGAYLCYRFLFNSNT

| SMILES | inhibition in vivo at 100 mg/kg (Rattus norvegicus [1]) | inhibition in vivo at 100 mg/kg (Rattus norvegicus [2]) | inhibition in vivo at 100 mg/kg (Rattus norvegicus [3]) | inhibition [4] |
| --- | --- | --- | --- | --- |
| O=[N+]([O-])c1ccc(N2CCN(CC(O)COc3ccc(F)cc3)CC2)cc1 (stereo unspecified) | 10.8% | 14.4% | 40.2% | 24% |
| N#Cc1ccc(OCC(O)CN2CCN(c3ccccc3)CC2)cc1 (stereo unspecified) | – | – | 56.7% | 4.6% |
| COc1ccccc1N1CCN(CC(O)COc2ccc(C#N)cc2)CC1 (stereo unspecified) | – | – | 33.5% | 2.6% |
| N#Cc1ccc(OCC(O)CN2CCN(c3cccc(Cl)c3)CC2)cc1 (stereo unspecified) | – | – | 16.5% | 1.5% |
| CN1CCN(CC(O)COc2ccc(Cl)cc2)CC1 (stereo unspecified) | – | – | 2.61% | 2.4% |
| CN(C)C(=N)NC(=N)N [METFORMIN] | 29.8% | 28% | 42% | – |
| N#Cc1ccc(OCC(O)CN2CCN(Cc3ccccc3)CC2)cc1 (stereo unspecified) | 14.7% | 25.3% | 39.6% | 5.1% |
| OC(COc1ccc(Cl)cc1)CN1CCN(C/C=C/c2ccccc2)CC1 (stereo unspecified) | – | – | 14.6% | 7.63% |
| N#Cc1ccc(OCC(O)CN2CCN(c3ccc(F)cc3)CC2)cc1 (stereo unspecified) | – | – | 38.6% | 3.6% |
| O=[N+]([O-])c1ccc(N2CCN(CC(O)COc3ccc(Cl)cc3)CC2)cc1 (stereo unspecified) | 13.6% | 18.9% | 24.8% | 35.9% |
| OC(COc1ccc(Cl)cc1)CN1CCN(c2ccc(Cl)c(Cl)c2)CC1 (stereo unspecified) | – | – | 3.52% | 24.6% |
| COc1ccc(N2CCN(CC(O)COc3ccc(Cl)cc3)CC2)cc1 (stereo unspecified) | – | – | 4.6% | 9.21% |
| N#Cc1ccc(OCC(O)CN2CCN(c3ccccn3)CC2)cc1 (stereo unspecified) | – | – | 39.6% | 1.8% |
| Cc1ccc(N2CCN(CC(O)COc3ccc(C#N)cc3)CC2C)cc1 (stereo unspecified) | 32% | 26.8% | 40.3% | 31.6% |
| N#Cc1ccc(OCC(O)CN2CCN(c3cccc(C(F)(F)F)c3)CC2)cc1 (stereo unspecified) | – | – | 49.7% | 18.8% |
| N#Cc1ccc(OCC(O)CN2CCN(Cc3ccc4c(c3)OCO4)CC2)cc1 (stereo unspecified) | – | – | 14% | 0.5% |
